Reference: ChEMBL document CHEMBL1122475, “Antidepressant activity of 5-aryl-2,3,5,6-tetrahydroimidazo[2,1-a]isoquinolin-5-ols” (1983)
The source made the active and inactive calls. The calls are words filed in the database; no cut-off is given here.

Tests used:
Mus musculus [1] = assay: Dose required to induce hyperactivity in mice (ip); not active at a dose of 50.0 mg/kg; assay type: functional, organism-based; parameters: dose 50 mg/kg
Mus musculus [2] = assay: Minimal dose required to induce in mice exophthalmus (ip); assay type: functional
Mus musculus [3] = assay: Minimal dose required to induce hyperaesthesia in mice (ip); assay type: functional
Mus musculus [4] = assay: Minimal dose required to cause piloerection in mice after ip administration; assay type: functional
Mus musculus [5] = assay: Dose required to induce hypersensitivity in mice (ip); assay type: functional
Mus musculus [6] = assay: Dose at which 50% convulsions occurred in mice (ip); assay type: functional
Mus musculus [7] = assay: Minimal dose required to cause aggressiveness in mice after ip administration; not active at a dose of 50.0 mg/kg; assay type: functional, organism-based; parameters: dose 50 mg/kg
Mus musculus [8] = assay: Minimal dose required to induce in mice straub tail (ip); assay type: functional
Mus musculus [9] = assay: Inhibition of reserpine (5 mg/kg i.p.) induced hypothermia in mice 2 hr after i.p. administration.; assay type: functional; conditions: ip
Mus musculus [10] = assay: Inhibition of reserpine (5 mg/kg i.p.) induced hypothermia in mice 4 hr after i.p. administration.; assay type: functional; conditions: ip
Mus musculus [11] = assay: Lethal dose by i.p. administration.; assay type: functional; conditions: ip
Mus musculus [12] = assay: Dose required to induce hyperactivity in mice (ip); not active at a dose of 25.0 mg/kg; assay type: functional, organism-based; parameters: dose 25 mg/kg
Mus musculus [13] = assay: Minimal dose required to induce in mice straub tail (ip); not active at a dose of 25.0 mg/kg; assay type: functional, organism-based; parameters: dose 25 mg/kg
Mus musculus [14] = assay: Minimal dose required to induce in mice exophthalmus (ip); not active at a dose of 25.0 mg/kg; assay type: functional, organism-based; parameters: dose 25 mg/kg
Mus musculus [15] = assay: Minimal dose required to cause aggressiveness in mice after ip administration; not active at a dose of 25.0 mg/kg; assay type: functional, organism-based; parameters: dose 25 mg/kg
Mus musculus [16] = assay: Minimal dose required to cause piloerection in mice after ip administration; not active at a dose of 25.0 mg/kg; assay type: functional, organism-based; parameters: dose 25 mg/kg
Mus musculus [17] = assay: Minimal dose required to induce hyperaesthesia in mice (ip); not active at a dose of 25.0 mg/kg; assay type: functional, organism-based; parameters: dose 25 mg/kg
Mus musculus [18] = assay: Dose required to induce hypersensitivity in mice (ip); not active at a dose of 50.0 mg/kg; assay type: functional, organism-based; parameters: dose 50 mg/kg
Mus musculus [19] = assay: Minimal dose required to induce in mice exophthalmus (ip); not active at a dose of 50.0 mg/kg; assay type: functional, organism-based; parameters: dose 50 mg/kg
Mus musculus [20] = assay: Minimal dose required to induce hyperaesthesia in mice (ip); not active at a dose of 50.0 mg/kg; assay type: functional, organism-based; parameters: dose 50 mg/kg
Mus musculus [21] = assay: Minimal dose required to cause piloerection in mice after ip administration; not active at a dose of 50.0 mg/kg; assay type: functional, organism-based; parameters: dose 50 mg/kg
Mus musculus [22] = assay: Minimal dose required to induce in mice straub tail (ip); not active at a dose of 50.0 mg/kg; assay type: functional, organism-based; parameters: dose 50 mg/kg
Felis catus [23] = assay: Compound tested to induce facilitation of monosynaptic spikes in spinal ventral root by stimulation of the dorsal root (DR-VR) after iv administration in cats; assay type: functional
Felis catus [24] = assay: Compound tested to induce facilitation of monosynaptic spikes in spinal ventral root by stimulation of the dorsal root (DR-VR) after iv administration in cats; 0.3-1.0; assay type: functional
Mus musculus [25] = assay: Dose required to induce hyperactivity in mice (ip); assay type: functional
Mus musculus [26] = assay: Minimal dose required to induce in mice straub tail (ip); not active at 12.5 mg/kg at 12.5 mg/kg; assay type: functional, organism-based
Mus musculus [27] = assay: Minimal dose required to cause piloerection in mice after ip; not active at 12.5 mg/kg; assay type: functional, organism-based; parameters: dose 12.5 mg/kg
Mus musculus [28] = assay: Minimal dose required to cause aggressiveness in mice after ip administration; not active at 12.5 mg/kg; assay type: functional, organism-based; parameters: dose 12.5 mg/kg
Mus musculus [29] = assay: Minimal dose required to induce in mice exophthalmus (ip); not active at 12.5 mg/kg at 12.5 mg/kg; assay type: functional, organism-based
Mus musculus [30] = assay: Dose required to induce hypersensitivity in mice (ip); not active at 12.5 mg/kg; assay type: functional, organism-based; parameters: dose 12.5 mg/kg
Mus musculus [31] = assay: Dose required to induce hypersensitivity in mice (ip); not active at a dose of 25.0 mg/kg; assay type: functional, organism-based; parameters: dose 25 mg/kg

SMILES | ED50 (Mus musculus [1]) | MD (Mus musculus [2]) | MD (Mus musculus [3]) | ED50 (Mus musculus [5]) | CD50 (Mus musculus [6]) | MD (Mus musculus [7]) | MD (Mus musculus [8]) | ED50 (Mus musculus [9]) | ED50 (Mus musculus [10]) | LD50 (Mus musculus [11]) | other results
COc1ccc(C2(O)Cc3ccccc3C3=NCCN32)cc1 (centres undefined) | inactive | 18.8 mg/kg | 37.5 mg/kg | 50 mg/kg | 37.5 mg/kg | inactive | 18.8 mg/kg | 8.4 mg/kg | 25.6 mg/kg | 138 mg/kg | MD (Mus musculus [4]): 37.5 mg/kg
OC1(c2ccc(Cl)cc2)c2ccccc2C2=NCCN21 (centres undefined) [MAZINDOL] |  |  |  |  |  |  |  | 0.05 mg/kg | 0.12 mg/kg |  | 
OC1(Cc2ccccc2)Cc2ccccc2C2=NCCN21 (centres undefined) |  |  |  | 25 mg/kg | 37.5 mg/kg |  |  | 5.9 mg/kg | > 25.6 mg/kg | 37.5 mg/kg | ED50 (Mus musculus [12]): inactive; MD (Mus musculus [13]): inactive; MD (Mus musculus [14]): inactive; MD (Mus musculus [15]): inactive; MD (Mus musculus [16]): inactive; MD (Mus musculus [17]): inactive
OC1(c2cccnc2)Cc2ccccc2C2=NCCN21 (centres undefined) | inactive |  |  |  | 75 mg/kg | inactive |  | 7 mg/kg | > 25.6 mg/kg | 68.8 mg/kg | ED50 (Mus musculus [18]): inactive; MD (Mus musculus [19]): inactive; MD (Mus musculus [20]): inactive; MD (Mus musculus [21]): inactive; MD (Mus musculus [22]): inactive
OC1(c2ccc(Cl)cc2Cl)Cc2ccccc2C2=NCCN21 (centres undefined) | inactive |  |  |  | 75 mg/kg | inactive |  | 5.4 mg/kg | > 25.6 mg/kg | 81.3 mg/kg | ED50 (Mus musculus [18]): inactive; MD (Mus musculus [19]): inactive; Activity (Felis catus [23]): >3 mg/kg; MD (Mus musculus [20]): inactive; MD (Mus musculus [21]): inactive; MD (Mus musculus [22]): inactive
OC1(c2cccc(Cl)c2)Cc2ccccc2C2=NCCN21 (centres undefined) |  |  |  |  | 37.5 mg/kg |  |  | 2.1 mg/kg | 11.5 mg/kg | 37.5 mg/kg | 
OC1(c2ccc(F)cc2)Cc2ccccc2C2=NCCN21 (centres undefined) |  | 9.4 mg/kg | 18.8 mg/kg | 25 mg/kg | 75 mg/kg |  | 9.4 mg/kg | 0.06 mg/kg | 10 mg/kg | 76.9 mg/kg | MD (Mus musculus [4]): 18.8 mg/kg; Activity (Felis catus [24]): 0.3 mg/kg; ED50 (Mus musculus [25]): 25 mg/kg
Cc1ccc(C2(O)Cc3ccccc3C3=NCCN32)cc1 (centres undefined) | inactive |  | 37.5 mg/kg | 37.5 mg/kg | 75 mg/kg | inactive | 37.5 mg/kg | > 25.6 mg/kg | > 25.6 mg/kg | 84.1 mg/kg | MD (Mus musculus [19]): inactive; MD (Mus musculus [21]): inactive
OC1(c2cccs2)Cc2ccccc2C2=NCCN21 (centres undefined) |  | 18.8 mg/kg | 18.8 mg/kg | 25 mg/kg | 75 mg/kg |  | 18.8 mg/kg | 4.5 mg/kg | > 25.6 mg/kg | 68.8 mg/kg | ED50 (Mus musculus [12]): inactive; MD (Mus musculus [4]): 25 mg/kg; MD (Mus musculus [15]): inactive
OC1(c2ccccc2)Cc2ccccc2C2=NCCN21 (centres undefined) |  |  | 9.4 mg/kg |  |  |  |  | 5 mg/kg | > 9.4 mg/kg | 37.5 mg/kg | MD (Mus musculus [26]): inactive; MD (Mus musculus [27]): inactive; ED50 (Mus musculus [25]): 12.5 mg/kg; MD (Mus musculus [28]): inactive; MD (Mus musculus [29]): inactive; ED50 (Mus musculus [30]): inactive
OC1(c2ccc(Cl)cc2)Cc2ccccc2C2=NCCN21 (centres undefined) |  | 18.8 mg/kg | 37.5 mg/kg |  | 37.5 mg/kg |  | 18.8 mg/kg | 0.025 mg/kg | 6.4 mg/kg | 75 mg/kg | ED50 (Mus musculus [25]): 25 mg/kg; Activity (Felis catus [23]): >1 mg/kg; MD (Mus musculus [16]): inactive; ED50 (Mus musculus [31]): inactive
OC1(c2cccc(C(F)(F)F)c2)Cc2ccccc2C2=NCCN21 (centres undefined) | inactive | 37.5 mg/kg | 37.5 mg/kg |  | 75 mg/kg | inactive |  | 1.9 mg/kg | > 25.6 mg/kg | 50 mg/kg | ED50 (Mus musculus [18]): inactive; MD (Mus musculus [4]): 37.5 mg/kg; Activity (Felis catus [24]): 0.3 mg/kg; MD (Mus musculus [22]): inactive
CN(C)CCCN1c2ccccc2CCc2ccccc21 [IMIPRAMINE] |  |  |  |  |  |  |  | 6.3 mg/kg | 12.8 mg/kg |  | 
OC1(c2ccncc2)Cc2ccccc2C2=NCCN21 (centres undefined) |  | 18.8 mg/kg | 18.8 mg/kg |  | 37.5 mg/kg |  | 18.8 mg/kg | 2.3 mg/kg | 3.3 mg/kg | 37.9 mg/kg | ED50 (Mus musculus [12]): inactive; MD (Mus musculus [15]): inactive; MD (Mus musculus [16]): inactive; ED50 (Mus musculus [31]): Weak
OC1(c2ccccc2F)Cc2ccccc2C2=NCCN21 (centres undefined) |  |  |  |  |  |  |  | 5.1 mg/kg | > 11.5 mg/kg | 35.5 mg/kg | 
OC1(c2ccccc2Cl)Cc2ccccc2C2=NCCN21 (centres undefined) |  | 9.4 mg/kg | 18.8 mg/kg |  | 37.5 mg/kg |  | 25 mg/kg | 6.1 mg/kg | 11.5 mg/kg | 34.4 mg/kg | ED50 (Mus musculus [12]): inactive; MD (Mus musculus [15]): inactive; MD (Mus musculus [16]): inactive; ED50 (Mus musculus [31]): inactive
